Results published in ChEMBL document CHEMBL2163318, “Phenylalanine derivatives as GPR142 agonists for the treatment of type II diabetes” (Bioorg Med Chem Lett, 2012).
Active and inactive are the calls of the source. No cut-off for these calls is given here.

Experiments:
[1] = target: T1, Probable G-protein coupled receptor 142 (Homo sapiens) (UniProt Q7Z601); test: Agonist activity at human GPR142 expressed in HEK293 cells assessed as inositol phosphate accumulation at 10 uM after 1 hr by scintillation counting; type: functional, cell-based
T1 sequence (whole entry): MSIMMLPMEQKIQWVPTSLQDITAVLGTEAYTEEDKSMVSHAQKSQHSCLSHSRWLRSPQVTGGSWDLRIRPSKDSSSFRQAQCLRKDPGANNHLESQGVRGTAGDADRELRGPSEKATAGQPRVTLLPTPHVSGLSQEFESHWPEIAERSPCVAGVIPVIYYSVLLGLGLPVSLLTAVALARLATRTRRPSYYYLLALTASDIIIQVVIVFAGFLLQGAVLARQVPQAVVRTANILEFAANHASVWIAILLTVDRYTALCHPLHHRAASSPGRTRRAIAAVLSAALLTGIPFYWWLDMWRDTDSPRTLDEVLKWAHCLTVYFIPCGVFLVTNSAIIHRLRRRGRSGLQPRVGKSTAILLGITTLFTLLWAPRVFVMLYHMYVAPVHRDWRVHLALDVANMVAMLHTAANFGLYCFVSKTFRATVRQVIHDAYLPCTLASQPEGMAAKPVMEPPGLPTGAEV

[2] = Metabolic stability of rat microsomes assessed as compound turnover at 1 uM after 30 mins by LC-MS analysis; type: ADME, Microsome; conditions: read-out: Drug metabolism
[3] = Metabolic stability of human microsomes assessed as compound turnover at 1 uM after 30 mins by LC-MS analysis; type: ADME, Microsome; conditions: read-out: Drug metabolism
[4] = target: T2, Probable G-protein coupled receptor 142 (Homo sapiens, UniProt Q7Z601); test: Agonist activity at human GPR142 expressed in HEK293 cells assessed as inositol phosphate accumulation after 1 hr by scintillation counting; type: functional, cell-based
T2 sequence (Q7Z601 whole entry): T1 sequence (whole entry)

[5] = Half life in rat at 0.67 mg/kg, iv; type: ADME, organism-based; design: dose 0.67 mg/kg, route intravenous; conditions: in vivo
[6] = Volume of distribution at steady state in rat at 0.67 mg/kg, iv; type: ADME, organism-based; design: dose 0.67 mg/kg, route intravenous; conditions: in vivo, read-out: Vdss
[7] = AUC in rat at 2 mg/kg, po; type: ADME, organism-based; design: dose 2 mg/kg, route oral; conditions: plasma
[8] = Clearance in rat at 0.67 mg/kg, iv; type: ADME, organism-based; design: dose 0.67 mg/kg, route intravenous; conditions: in vivo
[9] = target: T1, Probable G-protein coupled receptor 142 (Homo sapiens); test: Agonist activity at human GPR142 expressed in HEK293 cells assessed as inositol phosphate accumulation after 1 hr by scintillation counting in presence of 100% serum; type: functional, cell-based
[10] = target: T3, Probable G-protein coupled receptor 142 (Mus musculus) (UniProt Q7TQN9); test: Partial agonist activity at mouse GPR142 expressed in HEK293 cells relative to control; type: functional, cell-based
T3 sequence (whole entry): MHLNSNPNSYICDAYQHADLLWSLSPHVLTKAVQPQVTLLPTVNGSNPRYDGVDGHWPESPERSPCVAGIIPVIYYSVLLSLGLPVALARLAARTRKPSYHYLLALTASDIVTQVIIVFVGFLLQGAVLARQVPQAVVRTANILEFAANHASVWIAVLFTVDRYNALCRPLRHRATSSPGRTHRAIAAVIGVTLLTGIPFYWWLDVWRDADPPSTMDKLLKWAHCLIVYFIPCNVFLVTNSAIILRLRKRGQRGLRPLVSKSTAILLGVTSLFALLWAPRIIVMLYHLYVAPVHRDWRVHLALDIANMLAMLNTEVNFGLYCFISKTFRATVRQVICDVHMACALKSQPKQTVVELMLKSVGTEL

[11] = AUC in rat at 0.67 mg/kg, iv; type: ADME, organism-based; design: dose 0.67 mg/kg, route intravenous; conditions: plasma
[12] = Mean residence time in rat at 2 mg/kg, po; type: ADME, organism-based; design: dose 2 mg/kg, route oral; conditions: in vivo
[13] = Oral bioavailability in rat at 2 mg/kg; type: ADME, organism-based; conditions: in vivo
[14] = Clearance in rat at 0.5 mg/kg, iv; type: ADME, organism-based; design: dose 0.5 mg/kg, route intravenous; conditions: in vivo
[15] = Clearance in rat; type: ADME, organism-based; conditions: in vivo
[16] = AUC in rat at 0.5 mg/kg, iv; type: ADME, organism-based; design: dose 0.5 mg/kg, route intravenous; conditions: plasma
[17] = Half life in rat at 0.5 mg/kg, iv; type: ADME, organism-based; design: dose 0.5 mg/kg, route intravenous; conditions: in vivo
[18] = Volume of distribution at steady state in rat at 0.5 mg/kg, iv; type: ADME, organism-based; design: dose 0.5 mg/kg, route intravenous; conditions: in vivo, read-out: Vdss

Structure (SMILES)	Emax [1]	metabolised at 0.5 h, 1 µM [2]	metabolised at 0.5 h, 1 µM [3]	EC50 [4]	further results
O=C(Nc1cc(-c2ccncc2)c[nH]c1=O)[C@H](Cc1ccccc1)NCc1ncccn1	95%	99%	90%	440 nM	
O=C(Nc1cc(-c2ccncc2)c[nH]c1=O)[C@H](Cc1ccccc1)NCCc1ccccn1	76%	100%	100%	1320 nM	
Cc1cc(CN[C@@H](Cc2ccccc2)C(=O)Nc2cc(-c3ccncc3)c[nH]c2=O)no1	93%	95%	78%	2200 nM	
CN(C)CCn1cc(-c2ccncc2)cc(NC(=O)[C@H](Cc2ccccc2)NC2(c3ccccn3)CC2)c1=O	118%	22%	19%	280 nM	clearance [15]: 51.7 mL/min/kg
O=C1CC[C@H](CN[C@@H](Cc2ccccc2)C(=O)Nc2cc(-c3ccncc3)c[nH]c2=O)N1	78%	67%	19%	2230 nM	
O=C(Nc1cc(-c2ccncc2)c[nH]c1=O)[C@H](Cc1ccccc1)NC[C@H]1CCCO1	78%	98%	83%	390 nM	
C[C@@H](N[C@@H](Cc1ccccc1)C(=O)Nc1cc(-c2ccncc2)c[nH]c1=O)c1ccccn1	60%	95%	95%	6000 nM	
COc1ncc(-c2ccncc2)cc1NC(=O)[C@H](Cc1ccccc1)NC1(c2ccccn2)CC1	123%	54%	15%	350 nM	clearance [15]: 21.7 mL/min/kg; Activity [9]: inactive
CC(C)(N[C@@H](Cc1ccccc1)C(=O)Nc1cc(-c2ccncc2)c[nH]c1=O)c1ccccn1	57%	100%	> 95%	9450 nM	
C[C@H](N[C@@H](Cc1ccccc1)C(=O)Nc1cc(-c2ccncc2)c[nH]c1=O)c1ccccn1	107%	99%	100%	220 nM	
O=C(Nc1nnc(-c2cncs2)s1)[C@H](Cc1ccccc1)NCc1cscn1	74%	57%	29%	390 nM	clearance [14]: 40 mL/min/kg; bioavailability [13]: 32%
O=C(Nc1cc(-c2ccncc2)c[nH]c1=O)[C@H](Cc1ccccc1)NCc1cscn1		99%	68%	930 nM	Activity [9]: Active
O=C(O)Cn1cc(-c2ccncc2)cc(NC(=O)[C@H](Cc2ccccc2)NC2(c3ccccn3)CC2)c1=O	83%	12%	10%	260 nM	clearance [15]: 83.3 mL/min/kg
O=C(Nc1cc(-c2ccncc2)c[nH]c1=O)[C@H](Cc1ccccc1)NCC1CCS(=O)(=O)CC1	91%	58%	21%	20000 nM	
O=C(Nc1cc(-c2ccncc2)c[nH]c1=O)[C@H](Cc1ccccc1)NCCC1CCOCC1	84%	80%	66%	1060 nM	
CCC(N[C@@H](Cc1ccccc1)C(=O)Nc1cc(-c2ccncc2)c[nH]c1=O)c1ccccn1 (mixture of isomers)	81%	95%	85%	730 nM	

Compounds with a lower EC50 [4], results first:

Emax [1]	metabolised at 0.5 h, 1 µM [2]	metabolised at 0.5 h, 1 µM [3]	EC50 [4]	Structure (SMILES)	further results
92%	100%	90%	210 nM	Cn1ccc(CN[C@@H](Cc2ccccc2)C(=O)Nc2cc(-c3ccncc3)c[nH]c2=O)n1	
106%	74%	64%	200 nM	Cc1nc(C2(N[C@@H](Cc3ccccc3)C(=O)Nc3cc(-c4ccncc4)c[nH]c3=O)CC2)cs1	
86%	35%	19%	180 nM	Cn1cncc1-c1nnc(NC(=O)[C@H](Cc2ccccc2)NCc2cscn2)s1	clearance [14]: 28.3 mL/min/kg; bioavailability [13]: 19%
107%	96%	60%	110 nM	O=C(Nc1cc(-c2ccncc2)c[nH]c1=O)[C@H](Cc1ccccc1)NCc1c[nH]cn1	
114%	67%	21%	99 nM	O=C(Nc1cc(-c2ccncc2)c[nH]c1=O)[C@H](Cc1ccccc1)NC1(c2ncccn2)CC1	
155%	95%	95%	95 nM	O=C(Nc1cc(-c2ccncc2)c[nH]c1=O)[C@H](Cc1ccccc1)NCc1ccccn1	
115%	10%	14%	86 nM	O=C(Nc1nnc(-c2ccncc2)s1)[C@H](Cc1ccccc1)NCc1cscn1	clearance [14]: 7.33 mL/min/kg; AUC [7]: 480 ng·h/mL; Activity [9]: Active; MRT [12]: 1.93 h; AUC [16]: 1240 ng·h/mL; half-life [17]: 1.2 h; Vd [18]: 0.21 L/kg; bioavailability [13]: 10%
96%	66%	58%	36 nM	CNc1cc(-c2nnc(NC(=O)[C@H](Cc3ccccc3)NCc3cscn3)s2)ccn1	half-life [5]: 1.2 h; Vd [6]: 0.23 L/kg; AUC [7]: 1730 ng·h/mL; clearance [8]: 3.83 mL/min/kg; Activity [9]: inactive; Emax [10]: 37%; AUC [11]: 3030 ng·h/mL; MRT [12]: 2.36 h; bioavailability [13]: 36%
